In patent US9034303B2, “Neuroprotective and neuro-restorative iron chelators and monoamine oxidase inhibitors and uses thereof” (priority 2010, dated 2015):
Like-named read-outs stand apart in the source and are kept apart here.

Experiments:
[1] = test system: HepG2 cells; assay: Cytotoxicity in presence and absence of exogenous iron, HepG2; assay type: cell-based, human
Procedure: (§1) The potential of compound 3 to be toxic in the presence of free iron was also tested. The iron complexation method was based on the method of Leanderson and Tagesson (Carcinogenesis, 17, 545-550, 1996) with some modifications. Iron (III) was prepared from ferric ammonium citrate (Sigma, F5879) at 80 mM in sterile distilled water. Compound 3 was prepared at a 200 mM concentration in DMSO. Before each experiment, the freshly prepared iron (III) solution was diluted to 0.4 mM in PBS II (PBS containing 0.90 mM Ca^2+ and 0.49 mM Mg^2+). Compound 3 stock solutions were diluted to 2, 0.2, and 0.02 mM with PBS II. Equal volumes of the 0.4 mM iron (III) solution and compound 3 solutions were added together to prepare iron/test article complex solutions containing 1, 0.1, and 0.01 mM compound 3 and 0.2 mM iron (III). The compound 3 DMSO stock solution was diluted in PBS II at 1, 0.1, or 0.01 mM and used as compound 3 control without iron. An equal volume of the 0.4 mM iron (III) solution was diluted in PBS II to prepare a control containing only iron.
(§2) The medium was removed from the plated cells (both cell lines) and replaced with fresh medium (90 μL). Iron/compound 3 complex or compound 3 in PBS II without iron was added to cells in triplicate (10 μL) to final compound 3 concentrations of 100, 10, and 1 μM and an iron (III) concentration of 20 μM. Wells containing no cells were used as the background control. PBS II was run as vehicle control. Iron only was run at a final concentration of 20 μM.
(§3) Cell viability was determined as described above and cytotoxicity was compared between treatments with and without iron complexation.

[2] = molecular target: rat brain MAO-B (Rattus norvegicus (Rat), UniProt P19643); assay: In vitro inhibition of rat brain MAO-B (14C-PEA substrate); assay type: biochemical
Procedure: (§4) Rats are decapitated and the brains quickly taken into a weighted ice-cold sucrose buffer (0.32 M) and their weights determined. All subsequent procedures are performed at 0° C. The brains are homogenized in 0.32 M sucrose (one part tissue to 20 parts sucrose) in a Teflon glass homogenizer followed by the addition of sucrose buffer to a final concentration of 10% homogenate. The homogenates are centrifuged at 600 g for 15 min. The supernatant fractions are taken out and centrifuged at 4500 g for 30 min, the pellet diluted in 0.32 M sucrose buffer and kept frozen for later assaying of MAO.
(§5) MAO-A and MAO-B activities are determined in rat brain homogenate in vitro following incubation with varying concentrations of the test compounds.
The in vitro inhibitory activity of the compounds is tested against rat brain MAO-B. The test compounds are added to buffer containing 10^−7 M clorgylin and are incubated with the tissue homogenate for 30 or 60 min at 37° C. before addition of ^14C-PEA.
(§6) The test compound was added to a suitable dilution of the enzyme preparation (70 μg protein for MAO-B and 150 μg MAO-A assay) in 0.1 M phosphate buffer (pH 7.4). The mixture was incubated together with […], a specific inhibitor of MAO-B (for determination of MAO-A) or 0.05 M clorgylin, a specific inhibitor of MAO-A (for determination of MAO-B). Incubation was carried for 0.5 or 1 h at 37° C. before addition of ^14C-5-hydroxytryptamine binoxalate (5-HT) (100 or 400 μM) for determination of MAO-A, or ^14C-phenylethylamine (^14C-PEA) 100 or 400 μM for determination of MAO-B, and incubation continued for 30 min or 20 min, respectively. The reaction was stopped with 2 M ice-cold citric acid, and the metabolites were extracted and determined by liquid-scintillation counting in cpm units.
The reaction was stopped with 2 M ice-cold citric acid, and the metabolites were extracted with ethyl acetate and levels of radioactivity were determined by liquid-scintillation counting in CPM units. All assays were performed at least in duplicate and outcome was expressed as a mean±SEM. Data were analyzed by a Student's t test. Variations were considered statistically significant at a p value of 0.05.
(§7) MAO-A and MAO-B activity was measured using radioactive substrates. The substrate for MAO-A was 5 HT and for MAO-B was PEA. When measuring the activity of MAO-A, the MAO-B activity was inhibited with deprenyl and when measuring the activity of MAO-B the activity of MAO-A was inhibited with clorgylin. Blank samples were produced using TCP to inhibit both of the enzymes. The metabolites were extracted to toluene and read in a β-counter. The results are expressed in relative activity and normalized to the amount of protein in the tissue.

[3] = molecular target: rat brain MAO-A (Rattus norvegicus (Rat), UniProt P21396); assay: In vitro inhibition of rat brain MAO-A (14C-5-HT substrate); assay type: biochemical
Procedure: as §4, with “MAO. Protein concentration is determined with Bradford reagent at λ=595 nm, using BSA as a standard.” for “MAO.”
as §5
as §6, with “The activity of MAO-A and MAO-B was determined by the adapted method of Tipton & Youdim (Tipton K F, O'Sullivan J, Youdim M B, 1983, Encyclopedia of Neuroscience, 2004, G. Adelman and B. H. Smith, Elsevier). The test” for “The test”, “cpm units. […]” for “cpm units.”
as §7

[4] = test system: SHSY-5Y cells; assay: Cytotoxicity in presence and absence of exogenous iron, SH-SY5Y; assay type: cell-based, human
Procedure: as §1, §2, §3

[5] = with iron (20 μM), compound 1 μM
[6] = with iron (20 μM), compound 10 μM
[7] = with iron (20 μM), compound 100 μM

Chain of rat brain MAO-A (P21396 whole entry): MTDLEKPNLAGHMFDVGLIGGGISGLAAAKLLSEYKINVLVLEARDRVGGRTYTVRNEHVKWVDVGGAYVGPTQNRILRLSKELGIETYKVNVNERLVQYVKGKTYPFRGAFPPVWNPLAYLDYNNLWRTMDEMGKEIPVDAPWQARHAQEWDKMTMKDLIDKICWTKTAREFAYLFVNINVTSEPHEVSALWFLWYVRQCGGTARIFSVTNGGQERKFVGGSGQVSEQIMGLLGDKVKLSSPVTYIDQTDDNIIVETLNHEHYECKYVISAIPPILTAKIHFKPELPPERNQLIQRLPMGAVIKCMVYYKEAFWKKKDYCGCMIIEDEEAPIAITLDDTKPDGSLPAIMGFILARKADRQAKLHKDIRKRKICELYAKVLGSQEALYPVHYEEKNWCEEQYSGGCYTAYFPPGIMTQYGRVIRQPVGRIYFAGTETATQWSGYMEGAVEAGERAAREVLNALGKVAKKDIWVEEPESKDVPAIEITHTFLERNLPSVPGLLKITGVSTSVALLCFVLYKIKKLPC
Chain of rat brain MAO-B (P19643 whole entry): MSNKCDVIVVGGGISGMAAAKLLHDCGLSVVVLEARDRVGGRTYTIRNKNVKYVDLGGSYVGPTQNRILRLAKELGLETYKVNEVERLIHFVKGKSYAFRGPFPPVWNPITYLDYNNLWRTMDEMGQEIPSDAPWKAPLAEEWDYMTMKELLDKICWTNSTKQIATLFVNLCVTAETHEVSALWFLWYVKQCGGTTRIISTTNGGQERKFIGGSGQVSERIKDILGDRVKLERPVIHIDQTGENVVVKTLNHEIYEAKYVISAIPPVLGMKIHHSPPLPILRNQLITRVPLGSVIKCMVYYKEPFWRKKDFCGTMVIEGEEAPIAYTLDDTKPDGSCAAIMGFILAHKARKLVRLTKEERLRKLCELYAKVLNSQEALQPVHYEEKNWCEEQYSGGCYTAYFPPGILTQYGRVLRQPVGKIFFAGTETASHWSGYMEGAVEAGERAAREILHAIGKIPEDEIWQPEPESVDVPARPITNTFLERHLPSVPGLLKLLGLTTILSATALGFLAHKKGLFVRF

SMILES: C#CCN(C)CCc1ccc(O)c2ncccc12 [Compound 3, 5-[2-(methyl-2-propyn-1-ylamino)ethyl]-8-quinolinol]
- HepG2 cell death (%) [1, 5]: 4.8%
- HepG2 cell death (%) [1, 6]: 11.9%
- HepG2 cell death (%) [1, 7]: 99.5%
- HepG2 cell death (%) ([1]; without iron, compound 1 μM): −0.1%
- HepG2 cell death (%) ([1]; without iron, compound 10 μM): −0.7%
- HepG2 cell death (%) ([1]; without iron, compound 100 μM): −3.6%
- IC50 [2]: 10 to 30 nM
- Inhibition of rat brain MAO-B in vitro (in words) ([2]; rat brain): potent inhibitors
- IC50 [3]: 70 to 90 nM
- Inhibition of rat brain MAO-A in vitro (in words) ([3]; rat brain): potent inhibitors
- IC50 ([3]; read-out: MAO-A IC50, estimated from the data in FIG. 1, rat brain MAO-A): 70 to 90 nM
- SHSY-5Y cells alive ([4]; with exogenous iron (20 μM), compound 1 μM): 100%
- SHSY-5Y cell death (%) [4, 5]: −1.0%
- SHSY-5Y cell death (%) [4, 6]: 7.6%
- SHSY-5Y cell death (%) [4, 7]: 90.3%
- SHSY-5Y cell death (%) ([4]; without iron, compound 1 μM): 2.1%
- SHSY-5Y cell death (%) ([4]; without iron, compound 10 μM): 0.8%
- SHSY-5Y cell death (%) ([4]; without iron, compound 100 μM): 0.4%
